From PMC7327383, “The affinity and selectivity of α‐adrenoceptor antagonists, antidepressants, and antipsychotics for the human α1A, α1B, and α1D‐adrenoceptors” (Pharmacology Research & Perspectives, 2020)
Read-outs that look alike come from different tables or passages of the source.

Columns and labels:
human α1A-adrenoceptor = biological target: T1, human α1A-adrenoceptor (Homo sapiens, UniProt P35348); test: [3H]prazosin whole-cell competition binding, CHO-α1A cells; conditions: for selectivity α1A vs 1D / selectivity α1A vs α1B: ratio, 1 = no selectivity for a subtype over another
T1 construct: CHO cells stably expressing either the full‐length human α1A, α1B, or α1D‐adrenoceptor
T1 sequence (P35348 1-466): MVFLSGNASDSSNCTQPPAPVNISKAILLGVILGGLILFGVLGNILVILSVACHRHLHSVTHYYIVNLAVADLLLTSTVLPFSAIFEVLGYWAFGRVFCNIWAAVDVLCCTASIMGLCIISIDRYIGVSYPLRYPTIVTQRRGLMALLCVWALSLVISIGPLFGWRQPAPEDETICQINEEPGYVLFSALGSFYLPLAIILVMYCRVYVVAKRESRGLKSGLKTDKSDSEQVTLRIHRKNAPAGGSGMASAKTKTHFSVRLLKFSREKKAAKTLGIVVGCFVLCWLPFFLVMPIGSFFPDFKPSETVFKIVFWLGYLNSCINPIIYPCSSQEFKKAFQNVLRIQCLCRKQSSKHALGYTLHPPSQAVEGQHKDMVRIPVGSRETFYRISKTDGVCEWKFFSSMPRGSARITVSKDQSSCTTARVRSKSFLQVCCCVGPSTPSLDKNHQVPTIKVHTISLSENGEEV

human α1B-adrenoceptor = biological target: T2, human α1B-adrenoceptor (Homo sapiens, UniProt P35368); test: [3H]prazosin whole-cell competition binding, CHO-α1B cells; conditions: for Kd: read-out: Log KD α1B (converted)
T2 construct: CHO cells stably expressing either the full‐length human α1A, α1B, or α1D‐adrenoceptor
T2 sequence (P35368 1-520): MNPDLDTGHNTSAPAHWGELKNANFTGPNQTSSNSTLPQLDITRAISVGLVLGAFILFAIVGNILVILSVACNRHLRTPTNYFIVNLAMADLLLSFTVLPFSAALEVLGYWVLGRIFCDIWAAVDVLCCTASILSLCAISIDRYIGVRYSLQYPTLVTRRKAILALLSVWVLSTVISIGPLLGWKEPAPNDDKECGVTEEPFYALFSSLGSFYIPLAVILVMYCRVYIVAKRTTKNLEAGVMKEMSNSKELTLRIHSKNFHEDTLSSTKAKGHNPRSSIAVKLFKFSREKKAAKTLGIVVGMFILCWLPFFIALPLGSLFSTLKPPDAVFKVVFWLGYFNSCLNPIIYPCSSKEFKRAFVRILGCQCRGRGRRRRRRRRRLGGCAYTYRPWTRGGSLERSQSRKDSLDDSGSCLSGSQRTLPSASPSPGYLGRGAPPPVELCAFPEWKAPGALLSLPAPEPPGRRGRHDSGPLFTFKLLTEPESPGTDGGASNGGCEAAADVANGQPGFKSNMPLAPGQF

[1] = biological target: T3, full-length human α1D-adrenoceptor (Homo sapiens, UniProt P25100); test: [3H]prazosin whole-cell competition binding, CHO-α1D cells
T3 sequence (P25100 1-572): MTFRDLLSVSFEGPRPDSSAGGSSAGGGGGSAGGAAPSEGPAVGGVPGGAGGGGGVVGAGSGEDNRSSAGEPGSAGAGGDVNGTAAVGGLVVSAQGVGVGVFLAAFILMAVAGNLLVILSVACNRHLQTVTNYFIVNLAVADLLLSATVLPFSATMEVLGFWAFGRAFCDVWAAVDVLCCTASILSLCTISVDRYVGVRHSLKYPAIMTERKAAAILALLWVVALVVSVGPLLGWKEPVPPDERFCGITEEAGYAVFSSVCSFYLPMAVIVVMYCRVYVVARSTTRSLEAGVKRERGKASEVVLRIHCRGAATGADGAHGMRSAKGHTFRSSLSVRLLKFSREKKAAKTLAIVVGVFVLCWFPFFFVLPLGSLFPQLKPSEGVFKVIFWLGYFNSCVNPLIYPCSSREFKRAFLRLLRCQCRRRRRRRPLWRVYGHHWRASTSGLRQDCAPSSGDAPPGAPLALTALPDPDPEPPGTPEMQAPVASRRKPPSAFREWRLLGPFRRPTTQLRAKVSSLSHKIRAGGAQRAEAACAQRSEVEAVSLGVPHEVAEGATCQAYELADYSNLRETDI

[2] = ratio of KD values, higher α1A affinity, 1.0 under vs = none
[3] = ratio of KD values, printed under α1A = higher α1A affinity, 1.0 under vs = none
[4] = single-component inhibition curve, given as log KD (negative), mean ± SE mean, read-out: Log KD α1A (converted)
[5] = ratio, 1 = no selectivity for a subtype over another
[6] = single-component inhibition curve, given as log KD (negative), mean ± SE mean
[7] = Log KD α1D site 1, high-affinity component of two-component curve, control, used for selectivity
[8] = low-affinity component of two-component curve, control
[9] = percentage of inhibition through first component, control
[10] = ratio of KD values, higher α1D affinity (site 1 KD)
[11] = two-component inhibition curve, proportion of site 1
[12] = Log KD α1D, single-component inhibition curve, given as log KD (negative), mean ± SE mean
[13] = ratio of KD values, higher α1B affinity, 1.0 under vs = none
[14] = log KD from 3H-prazosin whole cell binding, CHO cells, mean ± s.e.mean
[15] = selectivity ratio, 1 = no selectivity for a given receptor subtype over another

Structure (SMILES) | Selectivity ratio α1A vs α1D (human α1A-adrenoceptor; [2]) | Selectivity ratio α1A vs α1B (human α1A-adrenoceptor; [3]) | Kd (human α1A-adrenoceptor; [4]) | selectivity α1B vs α1D (human α1B-adrenoceptor; [5]) | Kd (human α1B-adrenoceptor; [6]) | Selectivity ratio α1B vs α1D [1, 10] | Kd [1, 12] | Selectivity ratio α1B vs α1D (human α1B-adrenoceptor; [13]) | other results
CC(C(O)c1ccc(O)cc1)N1CCC(Cc2ccccc2)CC1 (stereo not drawn) [Ifenprodil] | 2.9 fold | 15 fold | 21.9 nM | 43 | 324 nM | 43 fold | – | – | Kd [1, 7]: 7.59 nM; Log KD α1D site 2 [1, 8]: −6.05 ± 0.13; % site 1 α1D [1, 9]: 48.8 ± 4.5% site 1; % site 1 α1D [1, 11]: -8.12 ± 0.18 -6.05 ± 0.13 48.8 ± 4.5% site 1
CCn1ccnc1CC1COc2ccccc2O1 (stereo not drawn) [Imiloxan] | – | >4.0 fold | 25100 nM | >10 | – | >10 fold | 9550 nM | – | selectivity α1A vs 1D (human α1A-adrenoceptor): 2.6; Selectivity ratio α1A vs α1D [1, 10]: 2.6 fold
CN(C)CCCN1c2ccccc2CCc2ccccc21 [Imipramine] | – | – | 33.9 nM | 1.3 | 1740 nM | 1.3 fold | 1290 nM | – | Selectivity ratio α1A vs α1B (human α1A-adrenoceptor): 51 fold; Selectivity ratio α1A vs α1D (human α1A-adrenoceptor): 38 fold
O=C(NC1CCN(CCc2c[nH]c3ccccc23)CC1)c1ccccc1 [Indoramin] | 138 fold | 41 fold | 3.72 nM | – | 151 nM | – | 513 nM | 3.4 fold | α1A selectivity (human α1A-adrenoceptor; for α1A over the α1B or α1D-adrenoceptors): 40 fold
CN1CCN(c2ccc(Nc3c4ccccc4nc4ccccc34)cc2)CC1 [JP1302] | – | – | – | – | – | – | – | – | Log KD α1A (human α1A-adrenoceptor; [6]): −6.21 ± 0.04; Log KD α1B (human α1B-adrenoceptor; [6]): −5.46 ± 0.02; Log KD α1D [1, 6]: −5.58 ± 0.09
CN(CCCN1c2ccccc2CCc2ccccc21)CC(=O)c1ccc(Cl)cc1 [Lofepramine] | 37 fold | 32 fold | 115 nM | – | 3630 nM | – | 4270 nM | 1.2 fold | –
CN1CC[C@]2(CCN3CCc4c(oc5ccccc45)[C@@H]3C2)N(C)C1=O.Cl [MK-912] | – | – | – | 69 | – | – | – | – | Log KD α1A (human α1A-adrenoceptor; [14]): -6.76 ± 0.03; selectivity α1A vs 1D (human α1A-adrenoceptor): 3.5; selectivity α1A vs α1B (human α1A-adrenoceptor): 20; Log KD α1B (human α1B-adrenoceptor; [14]): -5.46 ± 0.05; Log KD α1D site 1 ([1]; two-component inhibition curve, first (high-affinity) component): -7.30 ± 0.16; % site 1 α1D [1, 11]: 61.2 ± 5.5%; Log KD α1D site 2 ([1]; two-component inhibition curve, second (low-affinity) component): -5.50 ± 0.25
CN1CC[C@]2(CCN3CCc4c(oc5ccccc45)[C@@H]3C2)N(C)C1=O.Cl [MK‐912] | – | 20 fold | – | – | – | 69 fold | – | – | Log KD α1A (human α1A-adrenoceptor; [6]): −6.76 ± 0.03; Log KD α1B (human α1B-adrenoceptor; [6]): −5.46 ± 0.05; Log KD α1D site 1 ([1]; high-affinity component of two-component curve, control, used for selectivity): −7.30 ± 0.16; Log KD α1D site 2 [1, 8]: −5.50 ± 0.25; % site 1 α1D [1, 9]: 61.2 ± 5.5% site 1; Selectivity ratio α1A vs α1D [1, 10]: 3.5 fold
COc1ccccc1N1CCN(CC(O)COc2cccc3ccccc23)CC1 (stereo not drawn) [Naftopidil] | 8.1 fold | 14 fold | 10.7 nM | 1.7 | 151 nM | 1.7 fold | 87.1 nM | – | –
CNCCCN1c2ccccc2CCc2ccc(Cl)cc21 [Norclomipramine] | 48 fold | 48 fold | – | – | – | – | – | 1.0 fold | selectivity α1A vs 1D (human α1A-adrenoceptor): 48; selectivity α1A vs α1B (human α1A-adrenoceptor): 48; selectivities α1A vs α1B (human α1A-adrenoceptor; [15]): 48; selectivities α1A vs α1D (human α1A-adrenoceptor; [15]): 48; Log KD α1A (human α1A-adrenoceptor; [6]): −7.52 ± 0.08; Log KD α1B (human α1B-adrenoceptor; [6]): −5.84 ± 0.04; Log KD α1D [1, 6]: −5.84 ± 0.06
CNCCC=C1c2ccccc2CCc2ccccc21 [Nortriptyline] | – | – | – | – | 851 nM | – | 1550 nM | – | Selectivity ratio α1A vs α1B (human α1A-adrenoceptor): 47 fold; Selectivity ratio α1A vs α1D (human α1A-adrenoceptor): 85 fold; Kd (human α1A-adrenoceptor; Log KD α1A, single-component inhibition curve, given as log KD (negative), mean ± SE mean): 18.2 nM; Selectivity ratio α1B vs α1D (human α1B-adrenoceptor): 1.8 fold
Cc1nc2n(c(=O)c1CCN1CCC(c3noc4cc(F)ccc34)CC1)CCCC2O (stereo not drawn) [Paliperidone] | – | – | 4.37 nM | – | 43.7 nM | – | – | – | Selectivity ratio α1A vs α1B (human α1A-adrenoceptor): 10 fold; Selectivity ratio α1A vs α1D (human α1A-adrenoceptor): 7.8 fold; selectivity α1B vs α1D (human α1B-adrenoceptor): 1.3; Log KD α1D site 2 [1]: −5.57 ± 0.21; Selectivity ratio α1B vs α1D [1]: 1.3 fold; Kd [1, 7]: 33.9 nM; % site 1 α1D [1, 9]: 57.6 ± 4.9% site 1; % site 1 α1D [1, 11]: -7.47 ± 0.10 -5.57 ± 0.21 57.6 ± 4.9% site 1
CC(CN1c2ccccc2Sc2ccccc21)N(C)C (stereo not drawn) [Promethazine] | 18 fold | 8.7 fold | 100 nM | – | 871 nM | – | 1780 nM | 2.0 fold | –
CNCCCC1c2ccccc2C=Cc2ccccc21 [Protriptyline] | 16 fold | 13 fold | 214 nM | – | 2690 nM | – | 3470 nM | 1.3 fold | –
CC(C)(Cc1c[nH]c2ccc(Cl)cc12)NCCOc1ccccc1OCC1CC1.Cl [RS17053, N‐[2‐(2‐cyclopropylmethoxyphenoxy)ethyl]‐5‐chloro‐alpha, alpha‐dimethyl‐1H‐indole‐3‐ethanamine hydrochloride] | 31 fold | 52 fold | 4.68 nM | 1.7 | 245 nM | 1.7 fold | – | – | Kd [1]: 145 nM
